Reference: publication PMC8123621, “Development of Novel Potential Pleiotropic Compounds of Interest in Alzheimer’s Disease Treatment through Rigidification Strategy” (Molecules, 2021)

Experiments:
[1] = biological target: T1, hAChE (AChE from human erythrocytes) (Homo sapiens, UniProt P22303); assay: biochemical; settings: for inhibition at 1 µM: read-out: hAChE % Inhibition at 10^−6 M; for IC50: mean ± SEM of three experiments, read-out: hAChE IC50 (nM) (n = 3)
T1 construct: AChE from human erythrocytes; purchased Sigma Aldrich; host or cells: human erythrocytes (tissue-derived enzyme)
T1 sequence (P22303 32-617 isoform P22303-2 limits assumed): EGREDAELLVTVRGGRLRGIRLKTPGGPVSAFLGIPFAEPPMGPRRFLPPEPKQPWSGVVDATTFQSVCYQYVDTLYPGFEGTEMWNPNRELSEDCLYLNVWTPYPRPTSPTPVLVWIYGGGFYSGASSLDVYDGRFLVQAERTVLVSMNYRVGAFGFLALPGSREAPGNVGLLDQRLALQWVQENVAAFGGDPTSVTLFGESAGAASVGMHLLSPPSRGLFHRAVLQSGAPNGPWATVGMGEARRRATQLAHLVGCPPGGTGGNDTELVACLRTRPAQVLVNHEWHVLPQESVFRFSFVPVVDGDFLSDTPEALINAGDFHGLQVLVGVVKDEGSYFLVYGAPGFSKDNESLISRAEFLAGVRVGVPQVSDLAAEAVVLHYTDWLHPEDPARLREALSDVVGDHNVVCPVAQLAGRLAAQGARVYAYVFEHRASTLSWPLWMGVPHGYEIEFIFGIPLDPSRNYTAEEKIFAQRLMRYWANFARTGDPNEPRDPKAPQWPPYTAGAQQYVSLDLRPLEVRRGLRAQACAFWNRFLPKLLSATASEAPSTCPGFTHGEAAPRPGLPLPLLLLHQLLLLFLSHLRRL
Experimental: (§1) The inhibitory activity of novel analogs towards hAChE was evaluated according to the Ellman test.
Inhibitory capacity of compounds on AChE biological activity was evaluated through the use of the spectrometric method of Ellman. Acetylthiocholine iodide and 5,5-dithiobis-(2-nitrobenzoic) acid (DTNB) were purchased from Sigma Aldrich. AChE from human erythrocytes (buffered aqueous solution, ≥500 units/mg protein (BCA), Sigma Aldrich) was diluted in 20 mM HEPES buffer pH 8, 0.1% Triton X-100 such as to have enzyme solution with 0.25 unit/mL enzyme activity. In the procedure, 100 μL of 0.3 mM DTNB dissolved in phosphate buffer pH 7.4 were added into the 96 wells plate followed by 50 μL of test compound solution and 50 μL of enzyme ([…]). After 5 min of preincubation at 25 °C, the reaction was then initiated by the injection of 50 μL of 1 mM acetylthiocholine iodide solution. […] Assays were performed with a blank containing all components except acetylthiocholine, in order to account for non-enzymatic reaction. The reaction slopes were compared and the percent inhibition due to the presence of test compounds was calculated by the following expression: 100 − (vi/v0 × 100) where vi is the rate calculated in the presence of inhibitor and v0 is the enzyme activity.

[2] = biological target: T2, human 5-HT4R (5-HT4(b) membrane preparations) (Homo sapiens, UniProt Q13639); assay: h5-HT4R radioligand displacement ([3H]-GR113808); format: binding; settings: for inhibition at 1 µM: 10^−6 M, 0.5 nM [3H]-GR113808
T2 construct: purchased Eurofins HTS110M
T2 sequence (Q13639 whole entry): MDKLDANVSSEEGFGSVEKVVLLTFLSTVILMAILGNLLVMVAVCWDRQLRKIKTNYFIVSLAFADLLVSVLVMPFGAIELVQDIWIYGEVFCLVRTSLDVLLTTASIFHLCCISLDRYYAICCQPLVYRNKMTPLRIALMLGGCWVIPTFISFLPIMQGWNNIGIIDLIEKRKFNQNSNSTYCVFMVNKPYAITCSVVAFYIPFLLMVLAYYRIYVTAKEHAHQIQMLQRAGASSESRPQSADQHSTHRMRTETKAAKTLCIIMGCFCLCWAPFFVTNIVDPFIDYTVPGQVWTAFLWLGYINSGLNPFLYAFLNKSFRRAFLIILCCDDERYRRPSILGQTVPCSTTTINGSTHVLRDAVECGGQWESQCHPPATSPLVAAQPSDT
Experimental: as §1
At the end of the incubation, homogenates were filtered through Whatman GF/C filters (Alpha Biotech) presoaked with 0.5% polyethylenimine using a Brandel cell harvester. Filters were subsequently washed three times with 1 mL of ice-cold 25 mM Tris buffer (pH 7.4, 4 °C). Non-specific binding was evaluated in parallel in the presence of 30 µM serotonin.
(§2) For some of these compounds, affinity constants were calculated from five-point inhibition curves using the GraphPad Prism 6 software and expressed as Ki ± SD.

human 5-HT6 receptors = biological target: T3, human 5-HT6 receptors (Homo sapiens, UniProt P50406); assay: h5-HT6R radioligand displacement ([3H]-LSD); format: binding; settings: 10^−6 M; 2.5 nM [3H]-LSD
T3 construct: purchased Perkin Elmer RBHS6M; host or cells: HEK-293 cells, transient expression
T3 sequence (P50406 whole entry): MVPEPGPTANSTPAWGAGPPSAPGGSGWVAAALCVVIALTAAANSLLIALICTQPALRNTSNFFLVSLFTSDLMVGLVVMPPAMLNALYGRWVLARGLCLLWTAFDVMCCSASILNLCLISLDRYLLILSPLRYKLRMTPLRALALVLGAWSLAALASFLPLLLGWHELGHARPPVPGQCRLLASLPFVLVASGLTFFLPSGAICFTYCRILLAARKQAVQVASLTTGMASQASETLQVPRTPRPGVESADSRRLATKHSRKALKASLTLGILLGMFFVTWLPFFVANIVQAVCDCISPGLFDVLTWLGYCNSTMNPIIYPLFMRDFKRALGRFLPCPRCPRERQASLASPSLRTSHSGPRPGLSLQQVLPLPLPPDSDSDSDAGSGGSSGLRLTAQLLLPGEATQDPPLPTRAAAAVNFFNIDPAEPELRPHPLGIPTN
Experimental: as §1
Drugs were evaluated through their possibility to compete for the binding of [^3H]-LSD on membranes of HEK-293 cells transiently expressing the human 5-HT6 receptors (ref. RBHS6M, Perkin Elmer). […] At the end of the incubation, the homogenates were then filtered through Whatman GF/C filters and washed five times with ice-cold 25 mM Tris-HCl buffer. Non-specific binding was evaluated in the presence of 100 µM serotonin. Radioactivity associated to proteins was then quantified and expressed as the percentage of inhibition of the drugs under study.
as §2

[3] = tested on: scopolamine induced deficit; design: method as in PMID 31316368; settings: model of scopolamine induced deficit; cited from earlier work

SMILES: COc1cc(NC(C)=O)c(Cl)cc1-c1nn(C)cc1CC1CCN(CC2CCCCC2)CC1 [compound 6, N-(2-chloro-4-(4-((1-(cyclohexylmethyl)piperidin-4-yl)methyl)-1-methyl-1H-pyrazol-3-yl)-5-methoxyphenyl)acetamide]
- inhibition at 1 µM [1]: 31%
- inhibition at 1 µM [2]: 16%
- inhibition at 1 µM (human 5-HT6 receptors): 0%

SMILES: COc1cc(N)c(Cl)cc1C(=O)CCC1CCN(Cc2cccc(C)c2)CC1 [MR33372, reference compound]
- inhibition at 1 µM [2]: 98%
- in vivo anti-amnesic effect [3]: anti-amnesic effect
- inhibition at 1 µM (human 5-HT6 receptors): 80%

SMILES: COc1cc(NC(C)=O)c(Cl)cc1C(=O)CCC1CCN(CC2CCCCC2)CC1 [compound 7, N-(2-chloro-4-(3-(1-(cyclohexylmethyl)piperidin-4-yl)propanoyl)-5-methoxyphenyl)acetamide]
- IC50 [1]: 34 ± 5 nM
- inhibition at 1 µM [1]: 98%
- Ki [2]: 300 nM
- inhibition at 1 µM [2]: 94%

SMILES: CCCCN1CCC(CCC(=O)c2cc(Cl)c(N)cc2OC)CC1 [RS67333, reference compound]
- inhibition at 1 µM [2]: 100%

SMILES: COc1cc(N)c(Cl)cc1-c1nn(C)cc1CC1CCN(CC2CCCCC2)CC1 [3a, 2-chloro-4-(4-((1-(cyclohexylmethyl)piperidin-4-yl)methyl)-1-methyl-1H-pyrazol-3-yl)-5-methoxyaniline]
- inhibition at 1 µM [1]: 34%
- inhibition at 1 µM [2]: 34%
- inhibition at 1 µM (human 5-HT6 receptors): 2%

SMILES: COc1cc(N)c(Cl)cc1-c1nn(C)cc1CC1CCN(Cc2cccc(C)c2)CC1 [3b, 2-chloro-5-methoxy-4-(1-methyl-4-((1-(3-methylbenzyl)piperidin-4-yl)methyl)-1H-pyrazol-3-yl)aniline]
- IC50 [1]: 110 ± 4 nM
- inhibition at 1 µM [1]: 76%
- inhibition at 1 µM [2]: 20%
- inhibition at 1 µM (human 5-HT6 receptors): 68%

SMILES: Fc1ccc2c(CCNCc3cccc(OCC(F)(F)C(F)F)c3)c[nH]c2c1 [Idalopirdine, idalopirdine, reference compound]
- inhibition at 1 µM (human 5-HT6 receptors): 106%

SMILES: COc1cc(N)c(Cl)cc1C(=O)CCC1CCN(CC2CCCCC2)CC1 [Donecopride, donecopride, reference compound]
- inhibition at 1 µM [1]: 96%
- inhibition at 1 µM [2]: 100%
- inhibition at 1 µM (human 5-HT6 receptors): 30%

SMILES: Cc1cccc(CN2CCC(COc3cc(-c4ccccc4)nn3C)CC2)c1 [12c, 4-(((1-methyl-3-phenyl-1H-pyrazol-5-yl)oxy)methyl)-1-(3-methylbenzyl)piperidine]
- inhibition at 1 µM [1]: 15%
- inhibition at 1 µM [2]: 10%
- inhibition at 1 µM (human 5-HT6 receptors): 6%

SMILES: COc1ccc(-c2cc(OCC3CCN(Cc4cccc(C)c4)CC3)n(C)n2)cc1OC [12d, 4-(((3-(3,4-dimethoxyphenyl)-1_methyl-1H-pyrazol-5-yl)oxy)methyl)-1-(3-methylbenzyl)piperidine]
- inhibition at 1 µM [1]: 6%
- inhibition at 1 µM [2]: 9%
- inhibition at 1 µM (human 5-HT6 receptors): 9%

SMILES: COc1cc(NC(C)=O)c(Cl)cc1-c1cc(OCC2CCN(Cc3cccc(C)c3)CC2)n(C)n1 [12b, N-(2-chloro-5-methoxy-4-(1-methyl-5-((1-(3-methylbenzyl)piperidin-4-yl)methoxy)-1H-pyrazol-3-yl)phenyl)acetamide]
- inhibition at 1 µM [1]: 15%
- inhibition at 1 µM [2]: 9%
- inhibition at 1 µM (human 5-HT6 receptors): 0%
